Data taken from patent US9976141B2, “Compositions and methods for inhibiting gene expression of Hif2alpha” (Arrowhead Madison Inc., priority 2015, dated 2018).

Tested on: human (tumor) Hif2α (EPAS1) mRNA
Test: Hif2α knockdown in orthotopic RCC tumor bearing mice, single injection of RNAi trigger-delivery polymer conjugate, RT-qPCR (Table 7)
Format: in vivo
Conditions: RNAi trigger 50 μg, polymer 064 125 μg; single tail vein injection; relative to isotonic glucose
In short: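 A single intravenous dose of Hif2α RNAi trigger–delivery polymer conjugate, or isotonic glucose vehicle, was given to nude mice with subcapsular A498-SEAP renal tumours (about 5–6 weeks old). At the indicated time, tumour RNA was assayed by biplex TaqMan qPCR against CycA, and relative expression was calculated by ΔΔCT versus vehicle.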

Substance	Relative Expression day 4 (Hif2α mRNA in kidney tumor)
AD02857 (antisense UUUCAUGAAAUCGUUACGUUG; sense ACGUAACGAUUUCAUGAAAT; Hif2alpha RNAi agent antisense strand; modified_base 2,4,6,8,10,14 /mod_base = “2′-deoxy-2′-fluoro corresponding nucleoside”; modified_base 1,3,5,7,9,11,12,13,15,16,17,18,19,20,21 /mod_base = “2′-O-methyl corresponding nucleoside”; modified_base 2,3,20,21 /mod_base = “5′-phosphorothioate corresponding nucleotide”; Hif2alpha RNAi agent sense strand; modified_base 7,8,9 /mod_base = “2′-deoxy-2′-fluoro corresponding nucleoside”; modified_base 1,2,3,4,5,6,10,11,12,13,14,15,16,17,18,19 /mod_base = “2′-O-methyl corresponding nucleoside”; modified_base 20 /mod_base = “3′-3′-linked nucleotide”; modi)	0.192
AD02858 (antisense UUUCAUGAAAUCGUUACGUUG; sense ACGUAACGAUUUCAUGAAAT; Hif2alpha RNAi agent antisense strand; modified_base 2,3,4,8,10,14 /mod_base = “2′-deoxy-2′-fluoro corresponding nucleoside”; modified_base 1,5,6,7,9,11,12,13,15,16,17,18,19,20,21 /mod_base = “2′-O-methyl corresponding nucleoside”; modified_base 2,3,20,21 /mod_base = “5′-phosphorothioate corresponding nucleotide”; Hif2alpha RNAi agent sense strand; modified_base 7,8,9 /mod_base = “2′-deoxy-2′-fluoro corresponding nucleoside”; modified_base 1,2,3,4,5,6,10,11,12,13,14,15,16,17,18,19 /mod_base = “2′-O-methyl corresponding nucleoside”; modified_base 20 /mod_base = “3′-3′-linked nucleotide”; modi)	0.192
AD02859 (antisense UUUCAUGAAAUCGUUACGUUG; sense ACGUAACGAUUUCAUGAAAT; Hif2alpha RNAi agent antisense strand; modified_base 2,4,6,8,14 /mod_base = “2′-deoxy-2′-fluoro corresponding nucleoside”; modified_base 1,3,5,7,9,10,11,12,13,15,16,17,18,19,20,21 /mod_base = “2′-O-methyl corresponding nucleoside”; modified_base 2,3,20,21 /mod_base = “5′-phosphorothioate corresponding nucleotide”; Hif2alpha RNAi agent sense strand; modified_base 7,8,9 /mod_base = “2′-deoxy-2′-fluoro corresponding nucleoside”; modified_base 1,2,3,4,5,6,10,11,12,13,14,15,16,17,18,19 /mod_base = “2′-O-methyl corresponding nucleoside”; modified_base 20 /mod_base = “3′-3′-linked nucleotide”; modi)	0.214
AD02860 (antisense UUUCAUGAAAUCGUUACGUUG; sense ACGUAACGAUUUCAUGAAAT; Hif2alpha RNAi agent antisense strand; modified_base 2,3,8,10,14 /mod_base = “2′-deoxy-2′-fluoro corresponding nucleoside”; modified_base 1,4,5,6,7,9,11,12,13,15,16,17,18,19,20,21 /mod_base = “2′-O-methyl corresponding nucleoside”; modified_base 2,3,20,21 /mod_base = “5′-phosphorothioate corresponding nucleotide”; Hif2alpha RNAi agent sense strand; modified_base 7,8,9 /mod_base = “2′-deoxy-2′-fluoro corresponding nucleoside”; modified_base 1,2,3,4,5,6,10,11,12,13,14,15,16,17,18,19 /mod_base = “2′-O-methyl corresponding nucleoside”; modified_base 20 /mod_base = “3′-3′-linked nucleotide”; modi)	0.165
AD02861 (antisense UUUCAUGAAAUCGUUACGUUG; sense UAUACGUAACGAUUUCAUGAAAT; Hif2alpha RNAi agent antisense strand; modified_base 2,4,6,8,10,14 /mod_base = “2′-deoxy-2′-fluoro corresponding nucleoside”; modified_base 1,3,5,7,9,11,12,13,15,16,17,18,19,20,21 /mod_base = “2′-O-methyl corresponding nucleoside”; modified_base 2,3,20,21 /mod_base = “5′-phosphorothioate corresponding nucleotide”; Hif2alpha RNAi agent sense strand; modified_base 2 modified base = “2′-hydroxy corresponding nucleoside”; modified_base 10,11,12 /mod_base = “2′-deoxy-2′-fluoro corresponding nucleoside”; modified_base 1,3,4,5,6,7,8,9,13,14,15,16,17,18,19,20,21,22 /mod_base = “2′-O-methyl correspon)	0.103
AD02862 (antisense AUUCAUGAAAUCGUUACGUUG; sense UAUACGUAACGAUUUCAUGAAUT; Hif2alpha RNAi agent antisense strand; modified_base 2,4,6,8,10,14,16,18 /mod_base = “2′-deoxy-2′-fluoro corresponding nucleoside”; modified_base 1,3,5,7,9,11,12,13,15,17,19,20,21 /mod_base = “2′-O-methyl corresponding nucleoside”; modified_base 2,3,20,21 /mod_base = “5′-phosphorothioate corresponding nucleotide”; Hif2alpha RNAi agent sense strand; modified_base 2 modified base = “2′-hydroxy corresponding nucleoside”; modified_base 6,8,10,11,12,16,18,20 /mod_base = “2′-deoxy-2′-fluoro corresponding nucleoside”; modified_base 1,3,4,5,7,9,13,14,15,17,19,21,22 /mod_base = “2′-O-methyl correspon)	0.093
AD02873 (antisense UUUCAUGAAAUCGUUACGUUG; sense UAUACGUAACGAUUUCAUGAAAT; Hif2alpha RNAi agent antisense strand; modified_base 2,4,6,8,10,14,16,18 /mod_base = “2′-deoxy-2′-fluoro corresponding nucleoside”; modified_base 1,3,5,7,9,11,12,13,15,17,19,20,21 /mod_base = “2′-O-methyl corresponding nucleoside”; modified_base 2,3,20,21 /mod_base = “5′-phosphorothioate corresponding nucleotide”; Hif2alpha RNAi agent sense strand; modified_base 2 modified base = “2′-hydroxy corresponding nucleoside”; modified_base 6,8,10,11,12,16,18,20 /mod_base = “2′-deoxy-2′-fluoro corresponding nucleoside”; modified_base 1,3,4,5,7,9,13,14,15,17,19,21,22 /mod_base = “2′-O-methyl correspon)	0.079
AD02874 (antisense UUUCAUGAAAUCGUUACGUUG; sense UAUACGUAACGAUUUCAUGAAAT; Hif2alpha RNAi agent antisense strand; modified_base 2,4,6,8,10,14,16,18 /mod_base = “2′-deoxy-2′-fluoro corresponding nucleoside”; modified_base 1,3,5,7,9,11,12,13,15,17,19,20,21 /mod_base = “2′-O-methyl corresponding nucleoside”; modified_base 2,3,20,21 /mod_base = “5′-phosphorothioate corresponding nucleotide”; Hif2alpha RNAi agent sense strand; modified_base 2 modified base = “2′-hydroxy corresponding nucleoside”; modified_base 10,11,12,16 /mod_base = “2′-deoxy-2′-fluoro corresponding nucleoside”; modified_base 1,3,4,5,6,7,8,9,13,14,15,17,18,19,20,21,22 /mod_base = “2′-O-methyl correspon)	0.138
AD02875 (antisense AUUCAUGAAAUCGUUACGUUG; sense UAUACGUAACGAUUUCAUGAAUT; Hif2alpha RNAi agent antisense strand; modified_base 2,4,6,8,10,14,16,18 /mod_base = “2′-deoxy-2′-fluoro corresponding nucleoside”; modified_base 1,3,5,7,9,11,12,13,15,17,19,20,21 /mod_base = “2′-O-methyl corresponding nucleoside”; modified_base 2,3,20,21 /mod_base = “5′-phosphorothioate corresponding nucleotide”; Hif2alpha RNAi agent sense strand; modified_base 2 modified base = “2′-hydroxy corresponding nucleoside”; modified_base 10,11,12,16 /mod_base = “2′-deoxy-2′-fluoro corresponding nucleoside”; modified_base 1,3,4,5,6,7,8,9,13,14,15,17,18,19,20,21,22 /mod_base = “2′-O-methyl correspon)	0.101
